# Assay results: patent US6770632B1, “Folypolyglutamyl synthetase gene transfer to enhance antifolate” (priority 1999, dated 2004)
# pEC50: −log10 of the molar value. “And” between values parts separate entries of the source, which are not always exact repeats. Identical values can stand only once. Like-named read-outs stand apart in the source and are kept apart here.
# What was measured:
# [1] = system: 9L cells transfected with CD; settings: 9L cells stably transfected with E. coli cytosine deaminase cDNA; cited from earlier work
# subcutaneous 9L tumors = experiment: Growth of subcutaneous 9L tumors in nude mice; assay type: in vivo
# Procedure: (§1) In Vivo Experiments: 10^5 9L or 9L/FPGS cells or a mixture of 8×10^5 9L+2×10^5 9L/FPGS cells in 200 μL DMEM were injected subcutaneously into the flanks of six week old female nude mice (NCr/Sed, nu/nu, 20 gm; Massachusetts General Hospital breeding colony). After 14 days, when the tumors had reached an average volume of 60 mm^3, the mice were randomly divided into experimental groups with five mice per group. Intraperitoneal injections of varying MTX or EDX doses dissolved in 200 μL 0.9% NaCl were administered either daily or every third day. Tumor size was measured weekly using calipers. Tumor volume was calculated as length×width×height, as described previously (Takamiya, Y., et al., Journal of Neuroscience Research 33:493-503 (1992)).
# 9L/FPGS cells [2] = experiment: Cell culture survival study, 9L/FPGS cells; assay type: cell-based, rat; settings: for range of concentrations with statistically significant difference in survival between 9L and 9L/FPGS / difference in ED50 between 9L and 9L/FPGS: 4 hour pulses; for difference in ED50 between 9L and 9L/FPGS: FIG. 1 / FIG. 3A; for pEC50: Rattus norvegicus, 9L/FPGS, read-out: ED50 (the source's name)
# Procedure: (§2) Cell Culture Survival Studies: Cells were plated in triplicate at 8×10^5 cells per 10-cm-diameter plate, and were allowed to adhere for 4 hours, after which the medium was replaced with medium containing MTX or EDX. […] Drug-free medium was then added, and three days later the cells were trypsinized and counted on a model ZM Coulter apparatus. Dose-response curves were generated using Sigma Plot 3.0, which employs curve-fitting parameters based on the Marquardt-Levenberg method (Marquardt, D. W., Siam, J., J. Soc. Indust. Appl. Math 11:431-441 (1963)).
# [3] = system: subcutaneous 9L/FPGS tumors; experiment: Growth of subcutaneous 9L/FPGS tumors in nude mice; assay type: in vivo
# Procedure: as §1
# 9L cells [4] = experiment: Cell culture survival study, 9L cells; assay type: cell-based, rat; settings: for pEC50: Rattus norvegicus, 9L, read-out: ED50 (the source's name)
# Procedure: as §2
# in vivo = settings: nude, mouse, ip
# FPGS = settings: relative to MTX; cited from earlier work
# [5] = system: cocultures of 9L/FPGS and 9L cells; experiment: Bystander effect study, cocultures of 9L/FPGS and 9L cells; assay type: cell-based, rat; settings: for pEC50: Rattus norvegicus, 4 hrs drug exposure, read-out: ED50 (the source's name); for transmission efficiency (TE): 4 hour pulses
# Procedure: For bystander effect studies, cells were plated in triplicate with varying combinations of 9L/FPGS and 9L cells such that the total number of cells was 8×10^5 per 10-cm-diameter plate. The same protocol of 4 hour cell adherence followed by 4 hour drug exposure, washes, growth in drug free medium for 3 days, and counting on a ZM coulter apparatus was then followed. […] Four mL conditioned medium+2 mL fresh medium were added to 10-cm-diameter plates containing 9L/BAG cells plated overnight (1000 cells/dish, with a clonogenic efficiency of approximately 20%). Six days later, the cells were fixed with 4% paraformaldehyde in PBS. Fixed cells were stained for LacZ by incubating overnight in a solution containing 35 mM potassium ferricyanide, 35 mM potassium ferrocyanide, 2 mM magnesium chloride, and 0.2% 5-bromo-4-chloro-3-indolyl-β-D galactoside (Xgal; Fisher Scientific Co.;Pittsburgh, Pa.) at pH=7.3 (Price, J., et al., Proceedings of the National Academy of Sciences USA 84:156-160 (1987)). The next day, blue colonies greater than 1 mm in diameter were counted.
# However, a more quantitative approach is to generate a dose-response curve for nontransfected cells, transfected cells, and a coculture and to calculate the transmission efficiency (TE) for the coculture (Friedlos, F., et al., Journal of Medicinal Chemistry 40:1270-1275 (1997)). [formula]
# The superscripts 0, N, and 100 designate the ED50 values for cultures containing 0, N, and 100% transfected cells.
# [6] = system: mixed subcutaneous tumors 20% 9L/FPGS and 80% 9L cells; experiment: Growth of mixed subcutaneous tumors (20% 9L/FPGS + 80% 9L) in nude mice; assay type: in vivo; settings: 3 mg/kg daily i.p.
# Procedure: as §1
# 9L/BAG cells = experiment: Conditioned medium colony formation of 9L/BAG cells; assay type: cell-based, rat
# Procedure: Four mL conditioned medium+2 mL fresh medium were added to 10-cm-diameter plates containing 9L/BAG cells plated overnight (1000 cells/dish, with a clonogenic efficiency of approximately 20%). Six days later, the cells were fixed with 4% paraformaldehyde in PBS. […] The next day, blue colonies greater than 1 mm in diameter were counted.
# This conditioned medium was then added to 9L/BAG cells. A week later, the cells were stained for LacZ expression, which allowed colony formation to be assayed.
# [7] = system: 9L cells transfected with HSV-TK; settings: 9L cells stably transfected with HSV-TK cDNA; cited from earlier work
# [8] = system: rhabdomyosarcoma cell line; settings: rhabdomyosarcoma cell line transfected with rabbit carboxylesterase cDNA; cited from earlier work
# 9L/FPGS cells [9] = settings: rat, 24 h, 2 μM
# Procedure: (§3) Thin Layer Chromatography of MTX Metabolites: 10^6 9L or 9L/FPGS cells were plated in 6-cm diameter dishes and allowed to adhere for 4 hours, after which cells were incubated overnight with 2 μM 3′, 5′, 7-[^3H] methotrexate (Moravek Biochemicals; Brea, Calif.). Cells were then trypsinized, centrifuged, resuspended in 300 μL deionized water, and sonicated for 45 seconds at half-maximal power. Sonicated cells were centrifuged briefly to remove cellular debris, after which protein concentration was calculated using the Bradford protein assay. Proteins were precipitated with 1 mL methanol at −20° C. for 2 hr. Precipitated proteins were removed by centrifugation at 20,000 g for 30 min, and the supernatant was then concentrated to 30 μL under a stream of N2 at 37° C. on a Meyer N-Evap Analytical Evaporator (Organomation Associates Inc., Northborough, Mass.). A 1 μL aliquot was scintillation counted—cpm were converted into moles of drug taken up by determining the cpm of a known quantity of [^3H] MTX. […] Plates were eluted with a chloroforrn-methanol-acetic acid mixture (2:2:1) containing 20 mg/mL cetyl trimethylammonium bromide (Sigma). Following elution, the plates were placed under ordinary fluorescent light for 2 days, after which 20 nmol unlabelled standards were visualized under long-wave ultraviolet light. Plates were run in duplicate and the average RF values of the standards were: MTX=0.66; MTX-G1=0.59; MTX-G2=0.44, MTX-G3=0.33; MTX-G4=0.27; MTX-G5=0.25. Regions corresponding to where standards migrated were marked in the sample lane, scraped individually into scintillation vials, and counted. The amount of each radioactive metabolite in a sample lane was determined as a percentage of the total radioactivity recovered from that sample lane, after subtraction of the background counts obtained from lanes lacking radioactive sample.
# [10] = nude mice, five consecutive days, previous studies (Inaba 1989); cited from earlier work
# U87 cells = experiment: Cell culture survival study, U87 cells; assay type: cell-based, human
# Procedure: Cell Culture Survival Studies: Cells were plated in triplicate at 8×10^5 cells per 10-cm-diameter plate, and were allowed to adhere for 4 hours, after which the medium was replaced with medium containing MTX or EDX. After 4 hours drug exposure, the plates were washed three times with 4 mL PBS. Drug-free medium was then added, and three days later the cells were trypsinized and counted on a model ZM Coulter apparatus. Dose-response curves were generated using Sigma Plot 3.0, which employs curve-fitting parameters based on the Marquardt-Levenberg method (Marquardt, D. W., Siam, J., J. Soc. Indust. Appl. Math 11:431-441 (1963)).
# hepatoma cells = settings: cited from earlier work
# 9L cells [11] = settings: rat, 24 h, 2 μM
# Procedure: as §3
# [12] = in vivo, cited from earlier work
# [13] = mouse, in vivo, 9 mg/kg; cited from earlier work
# [14] = Maximum tolerated (nonlethal) dose in nude mice
# [15] = 3 mg/kg daily i.p., after three weeks
# [16] = 3 mg/kg daily i.p., after two weeks
# [17] = 4 h, 4 hour pulse, repeat of the dose-response curve (Table 3 footnote c)
# [18] = 4 h, 4 hrs drug exposure, bystander experiment FIG. 4a (MTX) / 4b (EDX)
# [19] = 4 h, 4 hrs drug exposure, curves of FIG. 1 (MTX) / FIG. 3a (EDX)
# [20] = cocultures containing 20% 9L/FPGS cells
# [21] = 9 mg/kg daily i.p., after three weeks
# [22] = 9 mg/kg every third day i.p., after three weeks
compound,measurement,setting,value
Nc1nc(=O)[nH]cc1F [5-fluorocytosine],ED50 shift nontransfected versus transfected cells,[1],80 fold
"CCC(Cc1cnc2nc(N)nc(N)c2n1)c1ccc(C(=O)N[C@@H](CCC(=O)O)C(=O)O)cc1 (stereo partly shown) [EDX, Edatrexate]",fold growth of tumor volume,subcutaneous 9L tumors; [15],10 fold
same,fold growth of tumor volume,subcutaneous 9L tumors; [16],8 fold
same,survival,"9L/FPGS cells [2]; 9L/FPGS cells, 300 nM, 4 hour pulse",below 10%
same,range of concentrations with statistically significant difference in survival between 9L and 9L/FPGS,9L/FPGS cells [2],"10,000 fold"
same,difference in ED50 between 9L and 9L/FPGS,9L/FPGS cells [2],67 fold
same,pEC50,9L/FPGS cells [2]; [17],7.59
same,pEC50,9L/FPGS cells [2]; [18],7.70
same,pEC50,9L/FPGS cells [2]; [19],7.74
same,growth of tumor volume,[3]; [15],doubled in volume
same,fold growth of tumor volume,[3]; [16],less than 4 fold
same,pEC50,9L cells [4]; [17],5.92
same,pEC50,"9L cells [4]; 4 h, 4 hrs drug exposure, bystander experiment FIG. 4b",6.05
same,pEC50,9L cells [4]; [19],5.92
same,MTD,in vivo,3 mg/kg/day
same,"Km of FPGS, lower than its Km for MTX",FPGS,4-5 fold
same,pEC50,"[5]; 4 h, coculture 1% 9L/FPGS, FIG. 4b",6.22
same,pEC50,"[5]; 4 h, coculture 10% 9L/FPGS, FIG. 4b",6.47
same,pEC50,"[5]; 4 h, coculture 20% 9L/FPGS, FIG. 4b",6.87
same,transmission efficiency (TE),[5]; cocultures containing 1% 9L/FPGS cells,33.1% and 33%
same,transmission efficiency (TE),[5]; cocultures containing 10% 9L/FPGS cells,63.8% and 64%
same,transmission efficiency (TE),[5]; [20],87%
same,fold growth of tumor volume,[6]; after three weeks,5 fold
same,fold growth of tumor volume,[6]; after two weeks,more than 4 fold
same,9L/BAG colonies relative to conditioned medium from non-treated cells,9L/BAG cells; conditioned medium from 9L cells pulsed with 0.3 μM for 4 hours,83%
same,9L/BAG colonies relative to conditioned medium from non-treated cells,9L/BAG cells; conditioned medium from 9L/FPGS cells pulsed with 0.3 μM for 4 hours,47%
Nc1nc(O)c2ncn(COC(CO)CO)c2n1 [ganciclovir],ED50 shift nontransfected versus transfected cells,[7],500 fold
CCc1c2c(nc3ccc(OC(=O)N4CCC(N5CCCCC5)CC4)cc13)-c1cc3c(c(=O)n1C2)COC(=O)[C@]3(O)CC [CPT-11],decrease in ED50 on transfection,[8],8 fold
"CN(Cc1cnc2nc(N)nc(N)c2n1)c1ccc(C(=O)N[C@@H](CCC(=O)O)C(=O)O)cc1 [MTX, Amethopterin]",POLYGLUTAMATE DISTRIBUTION (percentages of total sample lane radioactivity),9L/FPGS cells [9],10%
same,TOTAL MTX ACCUMULATED,9L/FPGS cells [9],12.7 pmol/mg protein
same,total radioactivity associated with the higher order polyglutamates MTX-G4 and G5,9L/FPGS cells [9],31%
same,maximum tolerated (nonlethal) dose (MTD),[10],15 mg/kg/day
same,fold growth of tumor volume,subcutaneous 9L tumors; [21],10 fold
same,fold growth of tumor volume,subcutaneous 9L tumors; [22],26 fold
same,ED50 of U87 higher than that of 9L,U87 cells; 4 hour pulse,over 10 fold
same,pEC50,"U87 cells; Homo sapiens, U-87 MG, U87, 4 hrs drug exposure, 3 days drug-free, read-out: ED50 (the source's name)",4.52
same,range of concentrations with statistically significant difference in survival between 9L and 9L/FPGS,9L/FPGS cells [2],100 fold
same,difference in ED50 between 9L and 9L/FPGS,9L/FPGS cells [2],29 fold
same,pEC50,9L/FPGS cells [2]; [18],7.03
same,pEC50,9L/FPGS cells [2]; [19],7.00
same,pEC50,"9L/FPGS cells [2]; 72 h, 72 hrs drug exposure",7.40
same,survival,"9L/FPGS cells [2]; two G418-resistant clones (one designated 9L/FPGS), 0.3 μM for 4 hours, 3 days drug-free medium",approximately 40%
same,total intracellular polyglutamate pool leaving the cell as monoglutamylated MTX,hepatoma cells,43%
same,fold growth of tumor volume,[3]; [21],4 fold
same,fold growth of tumor volume,[3]; [22],9 fold
same,survival,"9L cells [4]; 9L cells, 0.3 μM for 4 hours, 3 days drug-free medium",~90%
same,pEC50,"9L cells [4]; 4 h, 4 hrs drug exposure, bystander experiment FIG. 4a",5.57
same,pEC50,9L cells [4]; [19],5.54
same,pEC50,"9L cells [4]; 72 h, 72 hrs drug exposure",7.40
same,TOTAL MTX ACCUMULATED,9L cells [11],6.3 pmol/mg protein
same,total radioactivity associated with the higher order polyglutamates MTX-G4 and G5,9L cells [11],14%
same,peak plasma level,[12]; 50 mg/kg,0.1 mM
same,dose at which toxic side effects are experienced,[12],50 mg/kg
same,MTD,in vivo,9 mg/kg/day
same,peak plasma level,[13],0.03 mM
same,pEC50,"[5]; coculture 20% 9L/FPGS + 80% 9L, FIG. 4a",5.85
same,transmission efficiency (TE),[5]; [20],49.9%
same,maximum nonlethal dose,[14],9 mg/kg
